Results reported in patent US20040209799A1, “JAK/STAT pathway inhibitors and the uses thereof” (priority 2000, published 2004).

Assays:
[1] = system: chondrocytes in culture and explants of articular cartilage; details: cited from earlier work
[2] = system: rhIL-1β-induced mRNAs in human articular chondrocytes; test: northern blot, rhIL-1β-induced mRNAs, comparison of DBH forms (some mRNAs, not named); assay type: cell-based; details: 5 μM, for some mRNAs
Description: Frozen human articular chondrocyte cell strain HC30-0198 (described in Example 1) was thawed, and cultured in monolayer in T150 tissue culture flasks (Corning Costar, Cambridge, Mass.) as described above to 1-5 days post-confluence. Test cultures were rinsed in PBS, and preincubated for 2 hours with 10 ml of serum-free DMEM containing 5 μM DBH (synthetic), in its free base or trifluoroacetic acid salt form. An additional 10 ml of serum-free DMEM containing 5 μM DBH, 4 ng/ml recombinant human interleukin-1β (rhIL-1β; final concentration of 2 ng/ml) (R&D Systems, Minneapolis, Minn.), and 2% antibiotic solution (final concentration of 1%), were then added for 24 hours.
Two control cultures were run in parallel: one without DBH (rhIL-1β alone), and another without DBH or rhIL-1β.
Total RNA was fixed to the membrane using a Stratalinker® 1800 UV Crosslinker (Stratagene, La Jolla, Calif.). […]
The blot was successively washed two times in 2×SSC/0.05% SDS (15 min/wash at room temperature), and two times in 0.1×SSC/0.1% SDS (30 minutes/wash at 65° C.). The blot was allowed to air dry, and the radioactive signal was visualized and quantified using a Fujifilm, BAS-1500 phosphorimager (Fuji, Stamford, Conn.). […]

[3] = system: IL-1α-induced aggrecanase activity in bovine chondrocytes; test: IL-1α-induced 35S-labeled proteoglycan release (aggrecanase activity) in bovine chondrocytes; assay type: cell-based; details: Bos taurus, Chondrocyte, 1 ng/ml rhIL-1α, primary bovine articular chondrocytes
Description: Primary bovine articular chondrocytes were isolated from the dissected articular cartilage of calf stifle joints using a thirty minute (37° C.) 1 mg/ml hyaluronidase (Boehringer Mannheim, Indianapolis, Ind.) treatment, followed by a thirty minute (37° C.) 2 mg/ml collagenase P (Boehringer Mannheim, Indianapolis, Ind.) and 2.5 mg/ml trypsin (GIBCO/BRL, Gaithersburg, Md.) treatment. Enzyme solutions were prepared in serum-free 1:1 Delbecco's modified essential medium/Ham's F-12 (DMEM/F12), and filter sterilized with a 0.22 μm Millex®-GV filter (Millipore S. A., Molsheim, France). A third, overnight digestion (0.5 mg/ml collagenase P at 37° C.) was performed in a Bellco stir flask.
Bovine chondrocytes were recovered by addition of an equal volume of DMEM/F12 supplemented with 10% fetal bovine serum (FBS) to neutralize enzymes, filtered through a 70 μm nylon Falcon® Cell Strainer (Beckton Dickinson, Franklin Lakes, N.J.), and centrifuged at 1000×g for 10 min at room temperature. […]
On day 28, the 0.5 ml media was removed and placed in a scintillation minivial. 4 ml of scintillation fluid was added and radioactivity in the media was quantified by scintillation counting. The cell layer was rinsed in PBS and harvested with 0.5 ml of 1× trypsin-EDTA, and quantified by scintillation counting as above. […]
Data were determined and expressed as follows: […]

Row | Compound | inhibition of IL-1 induced degradation of glycosaminoglycan and extracellular matrix [1] | inhibition of rhIL-1β-induced mRNAs, compared with the trifluoroacetic acid salt form [2] | inhibition at 5 µM [3]
1 | NC1=NC(=O)C(=C2CCNC(=O)c3[nH]ccc32)N1 [DBH, 4-(2-amino-4-oxo-2-imidazolin-5-ylidene)-4,5,6,7-tetrahydropyrrolo(2,3-c) azepine-8-one] | inhibit |  | 
2 | NC1=NC(=O)C(=C2CCNC(=O)c3[nH]ccc32)N1 [DBH-2FB] |  | to a greater extent than the trifluoroacetic acid salt form of DBH | 100%
